“And” between values parts separate entries of the source, which are not always exact repeats. Identical values can stand only once. Toxic doses and inconclusive results are not listed.
Test system: P388 leukemia ip, CD2F1 mice, survival T/C
Test: NCI In Vivo Anticancer Drug Screen. Data for tumor model P388 Leukemia (intraperitoneal) in CD2F1 (CDF1) mice
Conditions: endpoint: median survival time, higher = longer survival
Summary of the method: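 Mice carrying the transplanted tumor received test compound or vehicle. Survival was recorded in each group, and the value is the treated-group measurement divided by that of the vehicle-treated control group.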

[1] = dose: 100.0 mg/kg/injection, schedule: Q04DX003 (ip), vehicle: Klucel (hydroxypropylcellulose) (HPC)
[2] = dose: 200.0 mg/kg/injection, schedule: Q04DX003 (ip), vehicle: Klucel (hydroxypropylcellulose) (HPC)
[3] = dose: 50.0 mg/kg/injection, schedule: Q01DX009 (ip), vehicle: Klucel (hydroxypropylcellulose) (HPC)
[4] = dose: 100.0 mg/kg/injection, schedule: Q01DX009 (ip), vehicle: Klucel (hydroxypropylcellulose) (HPC)
[5] = dose: 200.0 mg/kg/injection, schedule: Q01DX009 (ip), vehicle: Klucel (hydroxypropylcellulose) (HPC)
[6] = dose: 50.0 mg/kg/injection, schedule: Q01DX005 (ip), vehicle: Klucel (hydroxypropylcellulose) (HPC)
[7] = dose: 100.0 mg/kg/injection, schedule: Q01DX005 (ip), vehicle: Klucel (hydroxypropylcellulose) (HPC)
[8] = dose: 100.0 mg/kg/injection, schedule: Q01DX009 (ip), vehicle: saline
[9] = dose: 3.0 mg/kg/injection, schedule: Q01DX009 (ip), vehicle: saline
[10] = dose: 12.5 mg/kg/injection, schedule: Q01DX009 (ip), vehicle: saline
[11] = dose: 25.0 mg/kg/injection, schedule: Q01DX009 (ip), vehicle: saline
[12] = dose: 50.0 mg/kg/injection, schedule: Q01DX009 (ip), vehicle: saline
[13] = dose: 50.0 mg/kg/injection, schedule: Q01DX009 (ip), vehicle: saline with Tween-80
[14] = dose: 100.0 mg/kg/injection, schedule: Q01DX009 (ip), vehicle: saline with Tween-80
[15] = dose: 200.0 mg/kg/injection, schedule: Q01DX009 (ip), vehicle: saline with Tween-80
[16] = dose: 100.0 mg/kg/injection, schedule: Q04DX002 (ip), vehicle: saline
[17] = dose: 60.0 mg/kg/injection, schedule: Q01DX005 (ip), vehicle: saline with Tween-80
[18] = dose: 120.0 mg/kg/injection, schedule: Q01DX005 (ip), vehicle: saline with Tween-80
[19] = dose: 240.0 mg/kg/injection, schedule: Q01DX005 (ip), vehicle: saline with Tween-80

`S=c1[nH]nc(-c2cnns2)o1` was tested, and the T/C (dose: 50.0 mg/kg/injection, schedule: Q04DX003 (ip), vehicle: Klucel (hydroxypropylcellulose) (HPC)) was 103 % of control, the T/C [1] was 98 % of control and the T/C [2] was 107 % of control.
For `Clc1ccc(N=Cc2cccs2)c(Cl)c1`, the T/C [3] was 118 % of control, the T/C [4] was 107 % of control and the T/C [5] was 110 % of control.
In the case of `CCN(CC)CCSS(=O)(=O)CCN(CC)CC`, the T/C (dose: 50.0 mg/kg/injection, schedule: Q01DX005 (ip), vehicle: saline) is reported as 100 % of control and the T/C (dose: 100.0 mg/kg/injection, schedule: Q01DX005 (ip), vehicle: saline) is reported as 109 % of control.
`Cc1ccc(S(=O)(=O)N(CCc2ccccc2)S(=O)(=O)c2ccc(C)cc2)cc1` was tested, and the T/C [3] was 94 % of control, the T/C [4] was 100 % of control and the T/C [5] was 109 % of control.
With `Cc1ccc(NC(=S)SCc2ccc([N+](=O)[O-])cc2)cc1C` the T/C (dose: 50.0 mg/kg/injection, schedule: Q01DX009 (ip), vehicle: suspension in saline) was 89 % of control, the T/C (dose: 100.0 mg/kg/injection, schedule: Q01DX009 (ip), vehicle: suspension in saline) was 107 % of control and the T/C (dose: 200.0 mg/kg/injection, schedule: Q01DX009 (ip), vehicle: suspension in saline) was 101 % of control.
`Nc1[nH]c(=S)nc2nc3c4ccccc4c4ccccc4c3nc12` was tested, and the T/C [6] was 91 % of control, the T/C [7] was 90 % of control and the T/C (dose: 200.0 mg/kg/injection, schedule: Q01DX005 (ip), vehicle: Klucel (hydroxypropylcellulose) (HPC)) was 91 % of control.
With `C[n+]1ccc2c([N+](=O)[O-])cccc2c1` the T/C (dose: 6.25 mg/kg/injection, schedule: Q01DX005 (ip), vehicle: saline) was 103 % of control and the T/C (dose: 12.5 mg/kg/injection, schedule: Q01DX005 (ip), vehicle: saline) was 112 % of control.
In the case of `CC(C)(C)CC(C)(C)c1ccc(O)cc1`, the T/C (dose: 66.0 mg/kg/injection, schedule: Q01DX009 (ip), vehicle: saline) is reported as 100 % of control, the T/C [8] is reported as 100 % of control and the T/C (dose: 150.0 mg/kg/injection, schedule: Q01DX009 (ip), vehicle: saline) is reported as 122 % of control. For the same compound, the T/C (dose: 200.0 mg/kg/injection, schedule: Q01DX009 (ip), vehicle: saline sonified) was 118 % of control.
`CCS(=O)(=O)OCCF` was tested, and the T/C (dose: 0.78 mg/kg/injection, schedule: Q01DX009 (ip), vehicle: saline with Tween-80) was 106 % of control, the T/C (dose: 1.56 mg/kg/injection, schedule: Q01DX009 (ip), vehicle: saline with Tween-80) was 111 % of control and the T/C (dose: 3.12 mg/kg/injection, schedule: Q01DX009 (ip), vehicle: saline with Tween-80) was 106 % of control and 91 % of control.
For `Nc1nc(N)c2nnn(C3OC(CO)C(O)C3O)c2n1` (centres undefined), the T/C [9] was 119 % of control, the T/C (dose: 12.0 mg/kg/injection, schedule: Q01DX009 (ip), vehicle: saline) was 115 % of control and the T/C [10] was 122 % of control. The T/C [11] was 105 % of control and the T/C [12] was 96 % of control and 105 % of control.
In the case of `CCOC(=O)[C]1([Bi]([CH3])[CH3])N=NC(C(=O)OC)=C1C(=O)OC` (centres undefined), the T/C (dose: 25.0 mg/kg/injection, schedule: Q04DX003 (ip), vehicle: saline) is reported as 93 % of control, the T/C (dose: 50.0 mg/kg/injection, schedule: Q04DX003 (ip), vehicle: saline) is reported as 97 % of control and the T/C (dose: 100.0 mg/kg/injection, schedule: Q04DX003 (ip), vehicle: saline with Tween-80) is reported as 99 % of control.
With `CCCCCCCCCCCCOP(=O)(CC(=O)NCc1cc(C(C)(C)C)c(O)c(C(C)(C)C)c1)OCCCCCCCCCCCC` the T/C [13] was 92 % of control, the T/C [14] was 92 % of control and the T/C [15] was 90 % of control.
`CCN(CC)CC(C)Nc1ccc([N+](=O)[O-])c2sc3ccccc3c(=O)c12` (centres undefined) was tested, and the T/C (dose: 6.25 mg/kg/injection, schedule: Q01DX009 (ip), vehicle: saline) was 113 % of control, the T/C (dose: 12.5 mg/kg/injection, schedule: Q04DX003 (ip), vehicle: saline with Tween-80) was 115 % of control and the T/C (dose: 25.0 mg/kg/injection, schedule: Q04DX003 (ip), vehicle: saline with Tween-80) was 120 % of control. For the same compound, the T/C [13] was 172 % of control, the T/C [12] was 186 % of control and the T/C (dose: 132.0 mg/kg/injection, schedule: Q04DX003 (ip), vehicle: saline with Tween-80) was 163 % of control. The T/C (dose: 200.0 mg/kg/injection, schedule: Q04DX003 (ip), vehicle: saline with Tween-80) was 154 % of control.
With `CCOP(O)(=S)OCC.[Gd]` the T/C [1] was 90 % of control, the T/C [2] was 90 % of control and the T/C (dose: 400.0 mg/kg/injection, schedule: Q04DX003 (ip), vehicle: Klucel (hydroxypropylcellulose) (HPC)) was 90 % of control.
In the case of `c1ccc2sc(SNC3CCCCC3)nc2c1`, the T/C (dose: 25.0 mg/kg/injection, schedule: Q01DX009 (ip), vehicle: Klucel (hydroxypropylcellulose) (HPC)) is reported as 103 % of control, the T/C (dose: 25.0 mg/kg/injection, schedule: Q04DX002 (ip), vehicle: Klucel (hydroxypropylcellulose) (HPC)) is reported as 94 % of control and the T/C [3] is reported as 104 % of control. The T/C (dose: 50.0 mg/kg/injection, schedule: Q04DX002 (ip), vehicle: Klucel (hydroxypropylcellulose) (HPC)) was 95 % of control, the T/C [4] was 100 % of control and the T/C (dose: 100.0 mg/kg/injection, schedule: Q04DX002 (ip), vehicle: Klucel (hydroxypropylcellulose) (HPC)) was 94 % of control. The T/C [16] was 101 % of control, the T/C [5] was 101 % of control and the T/C (dose: 200.0 mg/kg/injection, schedule: Q04DX002 (ip), vehicle: saline) was 109 % of control. The T/C (dose: 400.0 mg/kg/injection, schedule: Q04DX002 (ip), vehicle: saline) was 113 % of control.
`C1CCc2c(-c3n[nH]c4c3CCCC4)n[nH]c2C1` was tested, and the T/C [17] was 103 % of control, the T/C [18] was 101 % of control and the T/C [19] was 100 % of control.
For `c1ccc(Cc2nnc3n2CCC(c2ccccc2)S3)cc1` (centres undefined), the T/C [17] was 102 % of control, the T/C [18] was 99 % of control and the T/C [19] was 95 % of control.
For `C[N+]1=C(c2ccc[nH]2)CC(C(=O)[O-])CC1` (centres undefined), the T/C [17] was 100 % of control, the T/C [18] was 106 % of control and the T/C [19] was 102 % of control.
With `COC(=O)CCCCCCCCCCCC1C=CCC1` (centres undefined) the T/C (dose: 100.0 mg/kg/injection, schedule: Q01DX001 (ip), vehicle: saline) was 105 % of control, the T/C (dose: 200.0 mg/kg/injection, schedule: Q01DX001 (ip), vehicle: saline) was 100 % of control and the T/C (dose: 400.0 mg/kg/injection, schedule: Q01DX001 (ip), vehicle: saline) was 104 % of control.
With `CCSC(=S)N(CC)c1nc2ccccc2o1` the T/C (dose: 100.0 mg/kg/injection, schedule: Q04DX002 (ip), vehicle: saline with Tween-80) was 105 % of control, the T/C (dose: 200.0 mg/kg/injection, schedule: Q04DX002 (ip), vehicle: saline with Tween-80) was 113 % of control and the T/C (dose: 400.0 mg/kg/injection, schedule: Q04DX002 (ip), vehicle: saline with Tween-80) was 122 % of control.
In the case of `O=S(=O)(Oc1cccc2ccccc12)C(F)(F)C(F)(F)C(F)(F)C(F)(F)F`, the T/C [13] is reported as 108 % of control, the T/C [14] is reported as 108 % of control and the T/C [15] is reported as 105 % of control.
For `CN(C)CCSCC(=O)Nc1ccccc1Cl`, the T/C (dose: 60.0 mg/kg/injection, schedule: Q01DX005 (ip), vehicle: saline) was 103 % of control, the T/C (dose: 120.0 mg/kg/injection, schedule: Q01DX005 (ip), vehicle: saline) was 106 % of control and the T/C (dose: 240.0 mg/kg/injection, schedule: Q01DX005 (ip), vehicle: saline) was 106 % of control.
For `CC(=O)SCN1CCCCC1`, the T/C [10] was 108 % of control, the T/C [11] was 108 % of control and 112 % of control and the T/C (dose: 25.0 mg/kg/injection, schedule: Q04DX002 (ip), vehicle: saline) was 110 % of control. For the same compound, the T/C [12] was 102 % of control and 118 % of control, the T/C (dose: 50.0 mg/kg/injection, schedule: Q04DX002 (ip), vehicle: saline) was 112 % of control and the T/C [8] was 108 % of control. For the same compound, the T/C [16] was 114 % of control and 116 % of control.
With `O=C1C(Cl)=C(N2CCN(C3=C(Cl)C(=O)c4ccccc4C3=O)CC2)C(=O)c2ccccc21` the T/C (dose: 1.5 mg/kg/injection, schedule: Q01DX009 (ip), vehicle: saline) was 100 % of control and 104 % of control, the T/C [9] was 100 % of control and 107 % of control and the T/C (dose: 6.0 mg/kg/injection, schedule: Q01DX009 (ip), vehicle: saline) was 104 % of control and 97 % of control.
`Cc1[nH]c(=O)cc2c1[nH]c1ccccc12` was tested, and the T/C (dose: 12.5 mg/kg/injection, schedule: Q01DX005 (ip), vehicle: Klucel (hydroxypropylcellulose) (HPC)) was 96 % of control, the T/C [6] was 100 % of control and the T/C [7] was 98 % of control.
With `O=c1[nH]c(CN2CCOCC2)ncc1C1CCCCC1` the T/C [13] was 97 % of control, the T/C [14] was 100 % of control and the T/C [15] was 95 % of control.
